Assay results as given in ChEMBL document CHEMBL2412999, “Anticonvulsant properties of histamine H3 receptor ligands belonging to N-substituted carbamates of imidazopropanol” (Bioorg Med Chem Lett, 2013).
Active and inactive are the calls of the source. No cut-off for these calls is given here.

Experiments:
Histamine H3 receptor = Histamine H3 receptor (Homo sapiens, UniProt Q9Y5N1); assay: Displacement of [125I]iodoproxyfan from human histamine H3 receptor expressed in CHO-K1 cells; format: cell-based
Histamine H4 receptor = Histamine H4 receptor (Homo sapiens, UniProt Q9H3N8); assay: Displacement of [3H]histamine from human histamine H4 receptor expressed in Sf9 cells co-expressing Gai2 and Gb1c2 subunit
Rattus norvegicus [1] = assay: Anticonvulsant activity in Wistar rat assessed as protection against maximum electric shock-induced tonic hind limb extension at 10 mg/kg, ip; format: functional, organism-based; parameters: dose 10 mg/kg; conditions: Hindlimb
Mus musculus = assay: In vivo inhibition of histamine H3 receptor in po dosed mouse assessed as Nt-methylhistamine level in brain; format: functional
[2] = molecular target: Histamine H1 receptor (Cavia porcellus) (UniProt P31389); assay: Antagonist activity at histamine H1 receptor in guinea pig ileum; format: tissue-based
[3] = molecular target: Histamine H2 receptor (Cavia porcellus) (UniProt P47747); assay: Antagonist activity at histamine H2 receptor in guinea pig atrium; conditions: Cardiac atrium
Rattus norvegicus [4] = assay: Anticonvulsant activity in Wistar rat assessed as protection against maximum electric shock-induced tonic hind limb extension at 10 to 15 mg/kg, ip; format: functional, organism-based; conditions: Hindlimb
Rattus norvegicus [5] = assay: Anticonvulsant activity in Wistar rat assessed as protection against pentylenetetrazole-induced seizure at 10 mg/kg, ip after 30 mins; format: functional, organism-based; parameters: dose 10 mg/kg
Rattus norvegicus [6] = assay: Anticonvulsant activity in Wistar rat assessed as protection against maximum electric shock-induced tonic hind limb extension at 5 mg/kg, ip; format: functional, organism-based; parameters: dose 5 mg/kg; conditions: Hindlimb
Rattus norvegicus [7] = assay: Anticonvulsant activity in Wistar rat assessed as protection against maximum electric shock-induced tonic hind limb extension at 10 mg/kg, ip in presence of histamine H1R antagonist pyrilamine; format: functional, organism-based; parameters: dose 10 mg/kg; conditions: Hindlimb
Rattus norvegicus [8] = assay: Anticonvulsant activity in Wistar rat assessed as protection against pentylenetetrazole-induced seizure at 10 mg/kg, ip after 5 to 10 mins; format: functional, organism-based; parameters: dose 10 mg/kg
Rattus norvegicus [9] = assay: Anticonvulsant activity in Wistar rat assessed as protection against maximum electric shock-induced tonic hind limb extension at 15 mg/kg, ip; format: functional, organism-based; parameters: dose 15 mg/kg; conditions: Hindlimb
Rattus norvegicus [10] = assay: Anticonvulsant activity in ip dosed Wistar rat assessed as protection against maximum electric shock-induced tonic hind limb extension; format: functional, organism-based; conditions: Hindlimb
Rattus norvegicus [11] = assay: Anticonvulsant activity in Wistar rat assessed as protection against maximum electric shock-induced tonic hind limb extension at 10 mg/kg, ip in presence of histamine H3R agonist RAMH; format: functional, organism-based; parameters: dose 10 mg/kg; conditions: Hindlimb

Chain of Histamine H2 receptor (Cavia porcellus) (P47747 whole entry): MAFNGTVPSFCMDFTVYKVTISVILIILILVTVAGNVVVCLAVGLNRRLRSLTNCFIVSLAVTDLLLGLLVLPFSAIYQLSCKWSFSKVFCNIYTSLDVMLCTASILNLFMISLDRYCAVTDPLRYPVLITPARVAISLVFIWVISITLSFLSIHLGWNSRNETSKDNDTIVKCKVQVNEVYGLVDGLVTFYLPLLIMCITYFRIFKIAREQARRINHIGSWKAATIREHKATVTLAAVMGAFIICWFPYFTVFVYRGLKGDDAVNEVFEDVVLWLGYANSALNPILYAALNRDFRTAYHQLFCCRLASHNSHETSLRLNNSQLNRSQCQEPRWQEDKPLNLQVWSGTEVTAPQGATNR
Chain of Histamine H3 receptor (Q9Y5N1 whole entry): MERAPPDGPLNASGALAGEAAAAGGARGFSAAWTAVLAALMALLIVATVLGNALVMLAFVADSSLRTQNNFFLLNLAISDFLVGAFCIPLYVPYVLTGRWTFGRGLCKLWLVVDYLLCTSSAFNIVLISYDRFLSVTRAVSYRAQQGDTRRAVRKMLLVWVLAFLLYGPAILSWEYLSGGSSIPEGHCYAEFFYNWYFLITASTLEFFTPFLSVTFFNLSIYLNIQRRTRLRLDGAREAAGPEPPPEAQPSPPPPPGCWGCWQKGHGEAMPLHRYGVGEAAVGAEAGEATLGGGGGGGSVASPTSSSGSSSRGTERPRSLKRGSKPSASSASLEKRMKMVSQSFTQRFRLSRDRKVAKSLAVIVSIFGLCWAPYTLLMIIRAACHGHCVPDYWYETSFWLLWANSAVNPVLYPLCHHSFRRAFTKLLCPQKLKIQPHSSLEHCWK
Chain of Histamine H1 receptor (Cavia porcellus) (P31389 whole entry): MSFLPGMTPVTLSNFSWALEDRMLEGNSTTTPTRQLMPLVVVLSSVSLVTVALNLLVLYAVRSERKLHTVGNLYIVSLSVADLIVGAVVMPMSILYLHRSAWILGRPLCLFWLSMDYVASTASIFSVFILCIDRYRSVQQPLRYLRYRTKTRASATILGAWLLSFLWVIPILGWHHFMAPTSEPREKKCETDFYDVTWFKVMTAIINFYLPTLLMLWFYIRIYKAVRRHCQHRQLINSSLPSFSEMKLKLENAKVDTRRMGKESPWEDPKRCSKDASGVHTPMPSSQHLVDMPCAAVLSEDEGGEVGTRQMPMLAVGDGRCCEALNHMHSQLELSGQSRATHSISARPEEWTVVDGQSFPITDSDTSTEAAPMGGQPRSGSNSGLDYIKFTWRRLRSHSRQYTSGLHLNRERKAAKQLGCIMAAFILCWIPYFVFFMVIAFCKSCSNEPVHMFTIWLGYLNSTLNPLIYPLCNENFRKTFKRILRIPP
Chain of Histamine H4 receptor (Q9H3N8 whole entry): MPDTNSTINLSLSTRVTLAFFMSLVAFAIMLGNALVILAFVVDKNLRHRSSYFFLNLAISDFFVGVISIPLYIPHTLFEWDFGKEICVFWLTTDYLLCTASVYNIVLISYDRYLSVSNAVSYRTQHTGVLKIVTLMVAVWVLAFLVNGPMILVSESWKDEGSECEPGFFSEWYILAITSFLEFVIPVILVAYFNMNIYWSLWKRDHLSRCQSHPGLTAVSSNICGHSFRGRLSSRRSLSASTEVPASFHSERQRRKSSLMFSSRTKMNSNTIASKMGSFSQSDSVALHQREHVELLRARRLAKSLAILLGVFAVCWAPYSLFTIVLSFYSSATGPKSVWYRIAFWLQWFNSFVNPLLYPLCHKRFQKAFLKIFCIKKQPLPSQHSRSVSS

SMILES | Ki (Histamine H3 receptor) [µM] | Ki (Histamine H4 receptor) [µM] | Activity (Rattus norvegicus [1]) | pKb [2] | pKb [3] | other results
O=C(NCCOc1ccccc1Cl)OCCCc1c[nH]cn1 | 0.708 | 16.2 | Active | – | – | ED50 (Mus musculus): 2.2 mg/kg
O=C(NCCc1ccc(Cl)cc1)OCCCc1c[nH]cn1 | 0.427 | 6.76 | – | 4.82 | 4.41 | ED50 (Mus musculus): 3.1 mg/kg
O=C(NCCCC1CCCCC1)OCCCc1c[nH]cn1 | 0.851 | 4.47 | – | 4.97 | 4.94 | –
CCC(C)CCNC(=O)OCCCc1c[nH]cn1 (stereo not drawn) | 0.129 | 1.23 | Active | – | – | Activity (Rattus norvegicus [4]): Active; ED50 (Mus musculus): 2 mg/kg
O=C1NC(=O)C(c2ccccc2)(c2ccccc2)N1 | – | – | Active | – | – | Activity (Rattus norvegicus [5]): Active; Activity (Rattus norvegicus [6]): inactive; Activity (Rattus norvegicus [4]): Active
O=C(NCCCCOc1ccccc1)OCCCc1c[nH]cn1 | 1.05 | > 100 | – | 4.27 | 4.78 | ED50 (Mus musculus): 5.8 mg/kg
S=C(NC1CCCCC1)N1CCC(c2cnc[nH]2)CC1 | – | – | Active | < 5 | < 5 | –
C[C@@H](N)Cc1c[nH]cn1 | – | – | inactive | – | – | –
O=C(NCCC1CC1)OCCCc1c[nH]cn1 | 0.17 | 1.55 | – | 3.8 | 3.5 | –
CC/C=C/CCNC(=O)OCCCc1c[nH]cn1 | 0.257 | 13.2 | – | – | – | –
O=C(NCCCCC1CCCCC1)OCCCc1c[nH]cn1 | 1.95 | 5.01 | Active | < 5.52 | 4.61 | Activity (Rattus norvegicus [4]): Active
O=C(NCCCOc1ccccc1)OCCCc1c[nH]cn1 | 1.29 | > 100 | Active | 4.34 | 4.26 | ED50 (Mus musculus): 4.1 mg/kg
O=C(NCCC1CCCCC1)OCCCc1c[nH]cn1 | 0.251 | 1.55 | – | 3.96 | 4.49 | –
C=CCCNC(=O)OCCCc1c[nH]cn1 | – | 3.8 | Active | < 4 | < 4 | Activity (Rattus norvegicus [4]): Active
CCC/C=C/CNC(=O)OCCCc1c[nH]cn1 | 0.24 | 7.08 | Active | – | – | –
C=CCCCNC(=O)OCCCc1c[nH]cn1 | 0.141 | 41.7 | Active | 3.9 | 3.6 | Activity (Rattus norvegicus [6]): Active; Activity (Rattus norvegicus [7]): inactive; Activity (Rattus norvegicus [8]): Active; Activity (Rattus norvegicus [9]): Active; Activity (Rattus norvegicus [10]): Dose-dependent effect; Activity (Rattus norvegicus [11]): inactive
COc1ccc(CN(CCN(C)C)c2ccccn2)cc1 | – | – | inactive | – | – | –
